Data as given in the Deep4Chem optical property database.
Where “and” joins values, the source holds several entries; their conditions need not be identical. Identical values can stand only once.

Assay: solvent given as SMILES

`COc1ccc(-c2nc(C(C)=O)c(C)o2)cc1` showed an absorption maximum (in CC#N) of 278 nm, an absorption maximum (in CCCCCC) of 278 nm and an absorption maximum (in CCO) of 277 nm. It also gave an absorption maximum (in CCOC(C)=O) of 279 nm, an absorption maximum (in CCOCC) of 276 nm and an absorption maximum (in ClCCl) of 277 nm.

In the case of `CCCCCCc1cc(B(c2c(C)cc(C)cc2C)c2c(C)cc(C)cc2C)c(-c2sc(CCCCCC)cc2P(=O)(c2ccccc2)c2ccccc2)s1`, the absorption maximum (in CO) was 418 nm.

`CCCCCCCCCCCCOc1ccc(C#Cc2ccc(C#Cc3ccc(OCCCCCCCCCCCC)c(OCCCCCCCCCCCC)c3)c3nc4c5ccccc5c5ccccc5c4nc23)cc1OCCCCCCCCCCCC` gave an absorption maximum (in C1CCOC1) of 461 nm, an absorption maximum (in Cc1ccccc1) of 461 nm and an absorption maximum (in ClCCl) of 461 nm.

With `CCCCCCCCn1c2ccccc2c(=O)c2ccccc21` the absorption maximum (in CS(C)=O) was 404 nm.

With `CI` the absorption maximum (in CCCCCC) was 259 nm.

Work on `Cc1cccc(C)c1-c1cc2c(C)c3c4ccc5nc6c(ccc7c8c(C)c9cc(-c%10c(C)cccc%10C)c(-c%10c(C)cccc%10C)cc9c(C)c8c76)nc5c4c3c(C)c2cc1-c1c(C)cccc1C` yielded an absorption maximum (in ClC(Cl)Cl) of 501 nm.

`CCCCCCN1C(=O)c2cccc3cc(/N=C\c4ccc5c(c4)c4ccccc4n5CC)cc(c23)C1=O` gave an absorption maximum (in ClC(Cl)Cl) of 340 nm.

For `O=c1cc2cc(O)c3cccc4ccc(o1)c2c43`, the absorption maximum (in CC1CCCO1) was 469 nm.

`COc1ccc(/C=C(\C#N)c2nc(-c3ccc(OC)cc3)cs2)cc1` gave an absorption maximum (in CC#N) of 380 nm.

With `c1ccc(-c2ccc(-c3ccccc3)cc2)cc1` the absorption maximum (in C1CCOC1) was 281 nm, the absorption maximum (in C1COCCO1) was 276 nm and the absorption maximum (in CCO) was 280 nm.

Work on `CCCCCCCCc1ccc(-n2c3c4ccccc4nnc3c3c2c2nnc4ccccc4c2n3-c2ccc(CCCCCCCC)cc2)cc1` yielded an absorption maximum (in Cc1ccccc1) of 316 nm.

With `Cc1ccc2ccc3cccc4ccc1c2c34` the absorption maximum (in CCCCCC) was 338 nm, the absorption maximum (in CO) was 338 nm and the absorption maximum (in ClCCl) was 341 nm.

`Cc1nc2c(ccc3ccc(N(C)C)cc32)oc1=O` showed an absorption maximum (in c1ccccc1) of 426 nm.

Molecule `COc1ccc2cc(C3=[N+]4C(=Nc5c(-c6ccccc6)cc(-c6ccc7cc(OC)ccc7c6)n5[B-]4(F)F)C(c4ccccc4)=C3)ccc2c1` has an absorption maximum (in ClC(Cl)Cl) of 706 nm and an absorption maximum (in ClCCl) of 706 nm.

Work on `CCN(CC)c1ccc(-c2nc3c4ccccc4n(C)c3nc2-c2ccc(B(c3c(C)cc(C)cc3C)c3c(C)cc(C)cc3C)cc2)cc1` yielded an absorption maximum (in C1CCOC1) of 416 nm.

In the case of `CC1=[N+]2C(=C(c3ccc(C(=C(c4ccccc4)c4ccccc4)c4ccccc4)cc3)c3ccc(/C=C/c4ccc(C(=C(c5ccccc5)c5ccccc5)c5ccccc5)cc4)n3[B-]2(F)F)C=C1`, the absorption maximum (in C1CCOC1) was 587 nm.

`F[B-]1(F)OC(c2cccc(Br)c2)=Cc2c3ccccc3c3ccccc3[n+]21` gave an absorption maximum (in ClC(Cl)Cl) of 432 nm.

`CC1(C)C(/C=C/C2=C(Cl)C(=C/C=C3/N(CCCCCC(=O)O)c4ccccc4C3(C)C)/CCC2)=[N+](CCCCCC(=O)O)c2ccccc21` gave an absorption maximum (in CO) of 782 nm.

Molecule `CCCCOc1cc2ccccc2c2c1oc1cc3ccccc3cc12` has an absorption maximum (in C1CCOC1) of 351 nm.

For `COc1ccc2c(c1)c1ccccc1n2-c1nc2ccccc2nc1-n1c2ccccc2c2cc(OC)ccc21`, the absorption maximum (in Cc1ccccc1) was 423 nm.

Work on `CCC1=C(C2=C(C3=C(CC)S(=O)(=O)c4cc(-c5ccc(C)s5)ccc43)C(F)(F)C(F)(F)C2(F)F)c2ccc(-c3ccc(C)s3)cc2S1(=O)=O` yielded an absorption maximum (in C1COCCO1) of 374 nm.

`CCCCCCCCCCOc1ccc2c3c(oc2c1)C1=C2C(=O)N4C=Cc5c(oc6cc(OCCCCCCCCCC)ccc56)C4=C2C(=O)N1C=C3` showed an absorption maximum (in CN(C)C=O) of 648 nm and an absorption maximum (in ClC(Cl)Cl) of 648 nm.

In the case of `COc1ccc(-c2cc3c(o2)=CC2=Cc4cc5oc(-c6ccc(OC)cc6)cc5n4[B-](F)(F)[N+]=32)cc1`, the absorption maximum (in ClC(Cl)Cl) was 673 nm and 672 nm.

With `CC1=N/C(=C\c2ccccc2N)C(=O)N1C` the absorption maximum (in C1CCCCC1) was 427 nm, the absorption maximum (in C1CCOC1) was 430 nm and the absorption maximum (in CC#N) was 422 nm. For the same molecule, the absorption maximum (in CO) was 424 nm, the absorption maximum (in CS(C)=O) was 436 nm and the absorption maximum (in ClCCl) was 422 nm. The absorption maximum (in O) was 390 nm.

Molecule `CN(C)c1ccc(C2=Nc3scc(-c4ccc(C#N)cc4)[n+]3[B-](F)(F)O2)cc1` has an absorption maximum (in C1CCOC1) of 411 nm, an absorption maximum (in CC#N) of 411 nm and an absorption maximum (in Cc1ccccc1) of 414 nm. It also gave an absorption maximum (in ClCCl) of 415 nm.

In the case of `CCN(CC)c1ccc2cc(-c3ccc(S(C)(=O)=O)cc3)oc(=O)c2c1`, the absorption maximum (in CC(C)=O) was 375 nm, the absorption maximum (in CCCCCC) was 373 nm and the absorption maximum (in CCCCO) was 378 nm. For the same molecule, the absorption maximum (in CCCO) was 378 nm, the absorption maximum (in CCO) was 376 nm and the absorption maximum (in CCOC(C)=O) was 374 nm. For the same molecule, the absorption maximum (in CN(C)C=O) was 379 nm, the absorption maximum (in CO) was 376 nm and the absorption maximum (in ClC(Cl)Cl) was 383 nm.

In the case of `N#CC(C#N)=Cc1ccc(-c2ccc(-c3nc4ccccc4s3)c(O)c2)o1`, the absorption maximum (in ClCCl) was 426 nm and the absorption maximum (in O) was 394 nm.

Molecule `FC(F)(F)c1ccc(/C=C/c2nc3c(ccc4ccccc43)s2)cc1` has an absorption maximum (in C1CCCCC1) of 375 nm and an absorption maximum (in CC#N) of 369 nm.

For `C1=C2c3cc4ccccc4cc3C3=[N+]2[B-]2(Oc4ccccc43)Oc3ccccc3-c3c4cc5ccccc5cc4c1n32` (stereo not drawn), the absorption maximum (in C1CCOC1) was 830 nm.

Work on `O=c1c(-c2ccc(O)cc2)coc2cc(O)cc(O)c12` yielded an absorption maximum (in CC#N) of 360 nm and an absorption maximum (in CCO) of 340 nm.

For `Cc1ccc(N2C(c3ccccc3NS(=O)(=O)c3ccc(C)cc3)=NC(c3ccccc3)C2c2ccccc2)cc1` (stereo not drawn), the absorption maximum (in Cc1ccccc1) was 300 nm.

For `N#Cc1ccc(C#Cc2ncc(-c3ccccc3)o2)cc1`, the absorption maximum (in ClCCl) was 345 nm.

`CC(=O)c1ccc(/N=N/c2ccc(Nc3ccccc3)cc2)cc1` gave an absorption maximum (in C1CCOC1) of 438 nm, an absorption maximum (in CC#N) of 432 nm and an absorption maximum (in CC(=O)O) of 544 nm. For the same molecule, the absorption maximum (in CN(C)C=O) was 452 nm, the absorption maximum (in CO) was 443 nm and the absorption maximum (in CS(C)=O) was 459 nm. The absorption maximum (in Cc1ccccc1) was 429 nm, the absorption maximum (in ClC(Cl)Cl) was 427 nm and the absorption maximum (in ClCCl) was 432 nm.

Work on `C[N+]1=C(/C=C/C=C2/N(CCCS(=O)(=O)[O-])c3ccccc3C2(C)C)C(C)(C)c2ccccc21` yielded an absorption maximum (in CS(C)=O) of 553 nm.

Work on `COc1ccc(N(c2ccc(OC)cc2)c2sc(-c3ccc(Cl)cc3)nc2-c2ccccc2)cc1` yielded an absorption maximum (in ClC(Cl)Cl) of 393 nm.

With `CCCCCCN(CCCCCC)c1ccc(C#Cc2ccc(N(CCCCCC)CCCCCC)cc2)cc1` the absorption maximum (in CO) was 380 nm and the absorption maximum (in ClCCl) was 387 nm.

Work on `CCC1(CC)c2cc(-c3ccc(-c4ccc5c(c4)C(CC)(CC)c4cc(C(C)(C)C)ccc4-5)cc3)ccc2-c2ccc(C(C)(C)C)cc21` yielded an absorption maximum (in CO) of 332.42 nm.

Molecule `CCCCn1c2ccccc2c2ccc3c4cc(-c5ccc(OC)cc5)ccc4n(CCCC)c3c21` has an absorption maximum (in ClC(Cl)Cl) of 333 nm.

Molecule `CC(C)c1cc(C(C)C)c(B2c3ccccc3Oc3cc(-n4c5ccccc5c5ccc6c(c7ccccc7n6-c6ccccc6)c54)ccc32)c(C(C)C)c1` has an absorption maximum (in Cc1ccccc1) of 438 nm.

With `COc1ccc2n1[B-](F)(F)[N+]1=CC=CC1=C2c1ccccc1` the absorption maximum (in CC#N) was 493 nm, the absorption maximum (in CCCCCC) was 499 nm and the absorption maximum (in CCOC(C)=O) was 495 nm. It also gave an absorption maximum (in CO) of 495 nm and an absorption maximum (in ClCCl) of 499 nm.

`Nc1ccc2ccc([O-])cc2c1` showed an absorption maximum (in O) of 342 nm.

`CCOC(=O)CN1C(=O)C2=C(c3ccc(N4CCCCC4)cc3)N(CC(=O)OCC)C(=O)C2=C1c1ccccc1` showed an absorption maximum (in CC#N) of 500 nm, an absorption maximum (in CS(C)=O) of 516 nm and an absorption maximum (in Cc1ccccc1) of 499 nm.

`CCN(CC)c1ccc(-c2ccc(-c3nc4ccccc4c(=O)[nH]3)s2)cc1` showed an absorption maximum (in CC#N) of 404 nm and an absorption maximum (in Cc1ccccc1) of 410 nm.

For `COc1cccc2cc(C)c3c4ccccc4[nH]c3c12`, the absorption maximum (in ClCCl) was 360 nm.

`Cc1ccc(-n2c3ccc(-c4ccc(-c5nc6ccccc6n5-c5ccccc5)cc4)cc3c3cc(-c4ccc(-c5nc6ccccc6n5-c5ccccc5)cc4)ccc32)cc1` showed an absorption maximum (in ClC(Cl)Cl) of 318 nm.

`CN1/C(=C/C=C/C2=[N+](C)c3ccccc3C2(C)C)Sc2ccccc21` gave an absorption maximum (in CS(C)=O) of 549 nm.

Molecule `CCN(CC)c1ccc(-c2nc(Oc3ccc(-c4nc5ccccc5[nH]4)cc3)nc(Oc3ccc(-c4nc5ccccc5[nH]4)cc3)n2)cc1` has an absorption maximum (in CN(C)C=O) of 376 nm.

With `Cc1cc(C)c(B(c2ccc(-c3cc4ccc5cccc6ccc(c3)c4c56)cc2)c2c(C)cc(C)cc2C)c(C)c1` the absorption maximum (in Cc1ccccc1) was 378 nm.

Molecule `COc1ccc(-c2cc(-c3ccccc3)nn2C)cc1` has an absorption maximum (in ClCCl) of 257 nm.

Work on `CC1(C)c2ccccc2N(c2ccc3nc4c5ccc(N6c7ccccc7C(C)(C)c7ccccc76)cc5c5cc(N6c7ccccc7C(C)(C)c7ccccc76)ccc5c4nc3c2)c2ccccc21` yielded an absorption maximum (in Cc1ccccc1) of 456 nm.

For `O=C(c1cc(F)c(N2CCOCC2)cc1F)c1cc(F)c(N2CCOCC2)cc1F`, the absorption maximum (in CCO) was 342 nm.

`CC1=[N+]2C(=C(Oc3ccccc3)c3ccc(C)n3[B-]2(F)F)C=C1c1cc2n(c1)[B-](F)(F)[N+]1=CC=CC1=C2c1c(C)cc(C)cc1C` showed an absorption maximum (in C1CCCCC1) of 582 nm and an absorption maximum (in CCOC(C)=O) of 577 nm.

With `CC(C)(C)C1Nc2c(Cl)cc(Cl)cc2C(=O)N1Cc1ccccc1` (stereo not drawn) the absorption maximum (in CC#N) was 360 nm, the absorption maximum (in CCCCCCCCCCCCCCCC) was 350 nm and the absorption maximum (in CO) was 367 nm. The absorption maximum (in ClC(Cl)Cl) was 357 nm and the absorption maximum (in c1ccccc1) was 355 nm.

Work on `Cc1ccc(-c2ccc(-c3ccc(-c4ccc(C)cc4)cc3/C(=C(/c3ccccc3)c3cc(-c4ccc(C)cc4)ccc3-c3ccc(-c4ccc(C)cc4)cc3)c3ccccc3)cc2)cc1` yielded an absorption maximum (in C1CCOC1) of 295 nm.

For `COc1nc(Nc2ccc3ccc4cccc5ccc2c3c45)nc(OC)n1`, the absorption maximum (in CC#N) was 340 nm, the absorption maximum (in CCCCOCCCC) was 341 nm and the absorption maximum (in CO) was 340 nm.

With `CCC1=C(C)C2=Cc3cscc3B(O)N2C1=O` the absorption maximum (in CC#N) was 350 nm, the absorption maximum (in CCCCCC) was 351 nm and the absorption maximum (in CO) was 355 nm. For the same molecule, the absorption maximum (in CS(C)=O) was 352 nm and the absorption maximum (in ClC(Cl)Cl) was 355 nm.

`CC1=[N+]2C(=C(c3ccc(C(=C(c4ccccc4)c4ccccc4)c4ccccc4)cc3)c3ccc(C)n3[B-]2(F)F)C=C1` showed an absorption maximum (in C1CCOC1) of 511 nm.

`CC1=CC(C)=[N+]2C1=C(c1ccc(I)cc1)c1c(C)cc(C)n1[B-]2(OC(C)C)OC(C)C` gave an absorption maximum (in ClC(Cl)Cl) of 504 nm.
